Where “and” joins values, the source holds several entries; their conditions need not be identical. Equal entries are not always repeated. Where two headings read alike, the source gives them in different places. Numbered stars: 1 amine (or outer) side, 2 acyl side, 3 side chain; on linkers, the order of the positions; unused ones are H or OH. Bridge positions count the residues as written; N and C are the ends. Square brackets hold non-standard residues; d marks the D form. Peptide text beside a SMILES is read from it. * marks the point of attachment. Orn(4R-OH,5R-OH) = O=C([C@H](C[C@@H](O)[C@@H](O)N[*:3])N[*:1])[*:2]; hTyr(3S-OH,4S-OH) = N[C@H](C(=O)O)[C@H](O)[C@@H](O)c1ccc(O)cc1; Pro(3S-OH,4S-Me) = C[C@H]1CN[C@H](C(=O)O)[C@H]1O; Oleoyl = CCCCCCCC/C=C\CCCCCCCC(=O)*; X2 = CCCCC/C=C/C/C=C/CCCCCCCC(=O)*; X4 = CCCCCCCC/C=C\CCCCCCCCCC(=O)*; Hyp = O=C(O)[C@@H]1C[C@@H](O)CN1; X3 = CCCCCCCC/C=C/CCCCCCCC(=O)*; X6 = CCCCCC/C=C\CCCCCCCCCC(=O)*
Columns and labels:
[1] = system: Candida albicans A-26; experiment: Agar plate disc diffusion test (MIC); type: cell-based; conditions: 0.01M sodium borate pH 7.5; 20 μg/disc top, twofold dilutions; 24 hours, 30° C.
Protocol: (§1) Tables II and III give the results of the testing in vitro of the compounds of Examples 1-16 by agar-plate disc-diffusion methods. In Table II activity is measured by the size (diameter in mm.) of the observed zone of inhibition of the microorganism produced by the test compound. In Table III, activity is measured by the minimal inhibitory concentration (MIC) of the substance (μg/dic) required to inhibit growth of the test organism. Table IV gives the results of the testing in vitro of the n-tridecanoyl derivative of A30912A nucleus (Formula III, R is n-C12 H25) against five strains of Candida albicans by the agar dilution method. In […] activity is measured by the minimal inhibitory concentration (MIC) of the substance (μg/ml) required to inhibit the test organism.
(§2) *Compounds were suspended in 0.01M sodium borate solution, pH 7.5. The
(§3) compounds were tested at 20 μg/disc at top level and at twofold
(§4) dilutions until end points were reached. Incubation: 24 hours; 30°

[2] = system: Saccharomyces pastoranius X-52; experiment: Agar plate disc diffusion test (zone of inhibition); type: cell-based, Saccharomyces pastorianus; conditions: X52, suspension in methanol 1 mg/ml, 7mm disc, 24-48 hours at 25-37° C., read-out: Size of zone of inhibition, Saccharomyces pastoranius X-52
Protocol: as §1
(§5) ^(a) Compounds were tested as suspension in methanol at a
(§6) concentration of 1 mg/ml. by dipping a 7mm disc into the suspension and
(§7) placing it on the agar surface. Incubation: 24-48 hours at 25-37°

[3] = Blood levels after oral administration in mice (bioassay vs. Aspergillus montevidensis A35137); conditions: mouse, in vivo; for concentration at 4 h: po, 416 mg/kg
Description: determined by bioassay vs. Aspergillus montevidensis A35137.

[4] = system: Trichophyton mentagraphytes A-23; experiment: Agar plate disc diffusion test (zone of inhibition); type: cell-based, Trichophyton mentagrophytes; conditions: A23, suspension in methanol 1 mg/ml, 7mm disc
Protocol: as §1, §5, §6, §7

[5] = system: Candida albicans A-26; experiment: as above; type: cell-based; conditions: suspension in methanol 1 mg/ml, 7mm disc; 24-48 hours at 25-37° C.
Protocol: as §1, §5, §6, §7

[6] = system: Neurospora crassa 846; experiment: as above; type: cell-based; conditions: Neurospora crassa, 846, suspension in methanol 1 mg/ml, 7mm disc
Protocol: as §1, §5, §6, §7

[7] = system: Candida albicans A-26; experiment: In vivo activity against Candida albicans A-26 infection in mice; set-up: species or system mice infected with Candida albicans A-26; conditions: mice, subcutaneous, schedule A (40, 20, 15, and 10 mg/kg), 0, 4, 24 hours; for minimal effective dose / ED50: Candida albicans, A26, sc, 24 h; for minimal effective dose: read-out: Lowest Active Dose; for ED50: increase in survival time, read-out: ED50
Protocol: The results of in vivo tests to evaluate the effectiveness of the compound of Examples 1-16 against an infection caused by Candida albicans A-26 in mice are given in Table V, where activity is measured by the ED50 value (the dose in mg/kg. required to cure 50% of the test animals). Where an ED50 value was not obtained, activity is indicated by the lowest dose at which a significant anti-fungal effect is observed. In this test, groups of male albino mice (specific pathogen free), weighing 18 to 20 grams, are infected intravenously with Candida albicans A-26. The animals are X-irradiated 24 hours prior to infection at about 50 roentgens per minute for 8 minutes (400 total dose) to reduce immune responses to the infecting organism. At 0, 4, and 24 hours post infection each group of mice is given graded doses subcutaneously of the test compound as a suspension in 33% polyethylene glycol-water. The day of death for each animal is recorded.
mg/kg. Dosages given 0, 4, and 24 hours post injection as suspension of
test compound in 30% PEG--H2 O. Number of mice receiving test
compounds at each dosage level; 6 mice per group. Number of mice in
control (untreated) group: 10 mice per group.
**As measured by increase in survival time of treated animals versus
control, calculated by method of Reed v Mueuch, American J. Hygiene, 27,

[8] = system: Trichophyton mentagrophytes #6; experiment: Agar plate disc diffusion test (MIC); type: cell-based; conditions: 0.01M sodium borate pH 7.5; 20 μg/disc top, twofold dilutions; 24 hours, 30° C.
Protocol: as §1, §2, §3, §4

[9] = 24-48 hours at 25-37° C., read-out: Size of zone of inhibition, Trichophyton mentagraphytes A-23
[10] = 24-48 hours at 25-37° C., read-out: Size of zone of inhibition, Neurospora crassa 846
[11] = *distinct measurable zone of inhibition with regrowth of organism around disc, read-out: Size of zone of inhibition, Trichophyton mentagraphytes A-23 (*)

In the case of `CCCCCCCC/C=C\CCCCCCCC(=O)N[C@H]1C[C@@H](O)[C@@H](O)NC(=O)[C@@H]2[C@@H](O)[C@@H](C)CN2C(=O)[C@H]([C@@H](C)O)NC(=O)[C@H]([C@H](O)[C@@H](O)c2ccc(O)cc2)NC(=O)[C@@H]2C[C@@H](O)CN2C(=O)[C@H]([C@@H](C)O)NC1=O` [Example 7] (Oleoyl-[Orn(4R-OH,5R-OH)]T[Hyp][hTyr(3S-OH,4S-OH)]T[Pro(3S-OH,4S-Me)]; lactam 1-C), the “MIC, Candida albicans A-26” value [1] was 0.625 μg/disc, the zone of inhibition at 1000 µg/mL [2] was 19 mm and the “Blood Levels After Oral Administration In Mice” value ([3]; 240 min) was 0 ng/mL. The zone of inhibition at 1000 µg/mL [4, 9] was 1 mm, the “Size of zone of inhibition, Candida albicans A-26” value (from here on “Size of zone of inhibition”) [5] was 23 mm and the zone of inhibition at 1000 µg/mL [6, 10] was 18 mm. The minimal effective dose [7] was 10 mg/kg and the “Lowest Active Dose” value [7] was 20 mg/kg.
With `CCCCCCCC/C=C/CCCCCCCC(=O)N[C@H]1C[C@@H](O)[C@@H](O)NC(=O)[C@@H]2[C@@H](O)[C@@H](C)CN2C(=O)[C@H]([C@@H](C)O)NC(=O)[C@H]([C@H](O)[C@@H](O)c2ccc(O)cc2)NC(=O)[C@@H]2C[C@@H](O)CN2C(=O)[C@H]([C@@H](C)O)NC1=O` [Example 8] (X3-[Orn(4R-OH,5R-OH)]T[Hyp][hTyr(3S-OH,4S-OH)]T[Pro(3S-OH,4S-Me)]; lactam 1-C) the “MIC, Candida albicans A-26” value [1] was 0.156 μg/disc, the “MIC, Trichophyton mentagrophytes #6” value [8] was under 0.039 μg/disc and the zone of inhibition at 1000 µg/mL [2] was 18 mm. For the same compound, the concentration at 4 h [3] was 65000 ng/mL, the zone of inhibition at 1000 µg/mL [4, 11] was 31 mm and the “Size of zone of inhibition” value [5] was 21 mm. The zone of inhibition at 1000 µg/mL [6, 10] was 32 mm, the ED50 [7] was 11 mg/kg and the minimal effective dose [7] was 10 mg/kg.
With `CCCCCC/C=C\CCCCCCCCCC(=O)N[C@H]1C[C@@H](O)[C@@H](O)NC(=O)[C@@H]2[C@@H](O)[C@@H](C)CN2C(=O)[C@H]([C@@H](C)O)NC(=O)[C@H]([C@H](O)[C@@H](O)c2ccc(O)cc2)NC(=O)[C@@H]2C[C@@H](O)CN2C(=O)[C@H]([C@@H](C)O)NC1=O` [Example 9] (X6-[Orn(4R-OH,5R-OH)]T[Hyp][hTyr(3S-OH,4S-OH)]T[Pro(3S-OH,4S-Me)]; lactam 1-C) the “MIC, Candida albicans A-26” value [1] was 0.312 μg/disc, the “MIC, Trichophyton mentagrophytes #6” value [8] was under 0.039 μg/disc and the concentration at 4 h [3] was 4200 ng/mL. For the same compound, the ED50 [7] was over 40 mg/kg and the minimal effective dose [7] was 40 mg/kg.
For `CCCCC/C=C/C/C=C/CCCCCCCC(=O)N[C@H]1C[C@@H](O)[C@@H](O)NC(=O)[C@@H]2[C@@H](O)[C@@H](C)CN2C(=O)[C@H]([C@@H](C)O)NC(=O)[C@H]([C@H](O)[C@@H](O)c2ccc(O)cc2)NC(=O)[C@@H]2C[C@@H](O)CN2C(=O)[C@H]([C@@H](C)O)NC1=O` [Example 10] (X2-[Orn(4R-OH,5R-OH)]T[Hyp][hTyr(3S-OH,4S-OH)]T[Pro(3S-OH,4S-Me)]; lactam 1-C), the “MIC, Candida albicans A-26” value [1] was 0.156 μg/disc, the “MIC, Trichophyton mentagrophytes #6” value [8] was under 0.039 μg/disc and the zone of inhibition at 1000 µg/mL [2] was 24 mm. For the same compound, the concentration at 4 h [3] was 610 ng/mL, the zone of inhibition at 1000 µg/mL [4, 9] was 36 mm and the “Size of zone of inhibition” value [5] was 24 mm. For the same compound, the zone of inhibition at 1000 µg/mL ([6]; *distinct measurable zone of inhibition with regrowth of organism around disc, read-out: Size of zone of inhibition, Neurospora crassa 846 (*)) was 26 mm, the ED50 [7] was 16 mg/kg and the minimal effective dose [7] was 10 mg/kg.
With `CCCCCCCC/C=C\CCCCCCCCCC(=O)N[C@H]1C[C@@H](O)[C@@H](O)NC(=O)[C@@H]2[C@@H](O)[C@@H](C)CN2C(=O)[C@H]([C@@H](C)O)NC(=O)[C@H]([C@H](O)[C@@H](O)c2ccc(O)cc2)NC(=O)[C@@H]2C[C@@H](O)CN2C(=O)[C@H]([C@@H](C)O)NC1=O` [Example 14] (X4-[Orn(4R-OH,5R-OH)]T[Hyp][hTyr(3S-OH,4S-OH)]T[Pro(3S-OH,4S-Me)]; lactam 1-C) the “MIC, Candida albicans A-26” value [1] was 1.25 μg/disc and 2.5 μg/disc, the zone of inhibition at 1000 µg/mL [2] was 18 mm and the zone of inhibition at 1000 µg/mL [4, 11] was 23 mm. For the same compound, the “Size of zone of inhibition” value [5] was 22 mm, the zone of inhibition at 1000 µg/mL [6, 10] was 18 mm and the minimal effective dose [7] was 10 mg/kg.
